target: T1, human type 1 glycine transporter (GlyT1) (Homo sapiens, UniProt P48067); test: Glycine uptake inhibition experiment ([3H]glycine uptake); format: cell-based; conditions: GlyT1
T1 construct: T98G cells (glioma cells) expressing human type 1 glycine transporter (GlyT1) were used
T1 sequence (P48067 1-706): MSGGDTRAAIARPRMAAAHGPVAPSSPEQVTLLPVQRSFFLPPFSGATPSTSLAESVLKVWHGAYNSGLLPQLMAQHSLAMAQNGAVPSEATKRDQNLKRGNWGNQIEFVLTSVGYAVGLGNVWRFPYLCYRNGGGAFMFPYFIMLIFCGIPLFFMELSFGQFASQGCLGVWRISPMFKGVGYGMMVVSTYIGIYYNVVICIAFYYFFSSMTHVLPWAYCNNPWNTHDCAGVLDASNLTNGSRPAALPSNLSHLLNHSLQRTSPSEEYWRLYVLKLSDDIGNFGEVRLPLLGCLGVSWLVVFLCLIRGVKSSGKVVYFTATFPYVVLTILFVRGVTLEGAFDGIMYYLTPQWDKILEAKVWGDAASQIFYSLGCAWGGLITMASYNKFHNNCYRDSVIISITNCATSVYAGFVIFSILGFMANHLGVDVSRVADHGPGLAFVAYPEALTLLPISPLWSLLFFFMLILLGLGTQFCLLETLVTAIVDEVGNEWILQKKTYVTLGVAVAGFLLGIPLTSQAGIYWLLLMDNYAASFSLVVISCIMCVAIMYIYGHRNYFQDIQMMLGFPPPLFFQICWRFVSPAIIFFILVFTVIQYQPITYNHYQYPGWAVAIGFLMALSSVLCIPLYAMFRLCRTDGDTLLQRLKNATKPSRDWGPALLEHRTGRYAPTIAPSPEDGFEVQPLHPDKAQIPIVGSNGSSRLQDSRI
Procedure, shortened: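 T98G glioma cells expressing human GlyT1 were pretreated 10 min with compound in HEPES buffer pH 7.4 (0.2% BSA), then incubated with compound plus 250 nM final [3H]glycine for 15 min at room temperature. Intracellular radioactivity was counted after NaOH lysis; 10 μM ALX5407 defined non-specific uptake. IC50 came from 10^−9–10^−5 M curves.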

Row | IC50 | Compound
1 | 57 nM | O=C(NC(c1cccc(Cl)c1)C1(O)CCCC1)c1nccc(C(F)(F)F)c1Cl (single isomer, unassigned) [Compound 54, 3-chloro-N-[(3-chlorophenyl)(1-hydroxycyclopentyl)methyl]-4-(trifluoromethyl)pyridine-2-carboxamide]
2 | 20 nM | O=C(NC(c1cccc(-c2cccnc2)c1)C1(O)CCCCC1)c1nccc(C(F)(F)F)c1Cl (single isomer, unassigned) [Compound 28, 3-chloro-N-{(1-hydroxycyclohexyl)[3-(pyridin-3-yl)phenyl]methyl}-4-(trifluoromethyl)pyridine-2-carboxamide]
3 | 430 nM | O=C(NC(c1cccc(F)c1Cl)[C@]1(O)CC[C@@H](F)CC1)c1cc(Cl)ccc1Cl (single isomer, unassigned) [Compound 251, 2,5-dichloro-N-[(2-chloro-3-fluorophenyl)(cis-4-fluoro-1-hydroxycyclohexyl)methyl]benzamide]
4 | 1100 nM | CCn1cc(-c2cccc(C(NC(=O)c3c(Cl)cccc3Cl)C3(O)CCC(F)(F)CC3)c2)cn1 (centres unmarked) [Compound 174, 2,6-dichloro-N-{(4,4-difluoro-1-hydroxycyclohexyl)[3-(1-ethyl-1H-pyrazol-4-yl)phenyl]methyl}benzamide]
5 | 26 nM | O=C(NC(c1cccc(Cl)n1)C1(O)CCCCC1)c1ccnc(C(F)(F)F)c1Cl (single isomer, unassigned) [Compound 385, 3-chloro-N-[(6-chloropyridin-2-yl)(1-hydroxycyclohexyl)methyl]-2-(trifluoromethyl)pyridine-4-carboxamide]
6 | 520 nM | O=C(NC(c1cc(Cl)ccn1)C1(O)CCC(F)(F)CC1)c1cc(C(F)(F)F)cnc1Cl (single isomer, unassigned) [Compound 360, 2-chloro-N-[(4-chloropyridin-2-yl)(4,4-difluoro-1-hydroxycyclohexyl)methyl]-5-(trifluoromethyl)pyridine-3-carboxamide]
7 | 6700 nM | O=C(N[C@H](c1cccc(Cl)c1)[C@]1(O)CC[C@@H](F)CC1)c1nccc(C(F)(F)F)c1Cl [Compound 161, 3-chloro-N-[(R)-(3-chlorophenyl)(cis-4-fluoro-1-hydroxycyclohexyl)methyl]-4-(trifluoromethyl)pyridine-2-carboxamide]
8 | 92 nM | O=C(NC(c1cccc(-c2cncnc2)c1)C1(O)CCCC1)c1nccc(C(F)(F)F)c1Cl (centres unmarked) [Compound 18, 3-chloro-N-{(1-hydroxycyclopentyl)[3-(pyrimidin-5-yl)phenyl]methyl}-4-(trifluoromethyl)pyridine-2-carboxamide]
9 | 270 nM | O=C(NC(c1cc(Cl)ccn1)C1(O)CCC(F)(F)CC1)c1nccc(C(F)(F)F)c1Cl (single isomer, unassigned) [Compound 345, 3-chloro-N-[(4-chloropyridin-2-yl)(4,4-difluoro-1-hydroxycyclohexyl)methyl]-4-(trifluoromethyl)pyridine-2-carboxamide]
10 | 73 nM | CCn1cc(-c2cccc(C(NC(=O)c3nccc(C(F)(F)F)c3Cl)C3(O)CCC(F)(F)CC3)c2)cn1 (centres unmarked) [Compound 86, 3-chloro-N-{(4,4-difluroo-1-hydroxycyclohexyl)[3-(1-ethyl-1H-pyrazol-4-yl)phenyl]methyl}-4-(trifluoromethyl)pyridine-2-carboxamide]
11 | 60 nM | O=C(NC(c1cccc(Br)c1)C1(O)CCCCC1)c1nccc(C(F)(F)F)c1Cl (centres unmarked) [Compound 38, N-[(3-bromophenyl)(1-hydroxycyclohexyl)methyl]-3-chloro-4-(trifluoromethyl)pyridine-2-carboxamide]
12 | 960 nM | Cc1cccc(C(=O)NC(c2cccc(F)c2Cl)[C@]2(O)CC[C@@H](F)CC2)c1Cl (single isomer, unassigned) [Compound 287, 2-chloro-N-[(2-chloro-3-fluorophenyl)(cis-4-fluoro-1-hydroxycyclohexyl)methyl]-3-methylbenzamide]
13 | 360 nM | O=C(NC(c1cc(Cl)ccn1)C1(O)CCC(F)(F)CC1)c1ccnc(C(F)(F)F)c1Cl (single isomer, unassigned) [Compound 346, 3-chloro-N-[(4-chloropyridin-2-yl)(4,4-difluoro-1-hydroxycyclohexyl)methyl]-2-(trifluoromethyl)pyridine-4-carboxamide]
14 | 550 nM | O=C(NC(c1cccc(Cl)n1)[C@]1(O)CC[C@@H](F)CC1)c1cc(C(F)(F)F)ncc1Cl (single isomer, unassigned) [Compound 309, 5-chloro-N-[(6-chloropyridin-2-yl)(cis-4-fluoro-1-hydroxycyclohexyl)methyl]-2-(trifluoromethyl)pyridine-4-carboxamide]
15 | 1600 nM | COc1cccc(C(=O)NC(c2cccc(F)c2Cl)[C@]2(O)CC[C@@H](F)CC2)c1Cl (single isomer, unassigned) [Compound 289, 2-chloro-N-[(2-chloro-3-fluorophneyl)(cis-4-fluoro-1-hydroxycyclohexyl)methyl]-3-methoxybenzamide]
16 | 270 nM | Cc1c(Cl)ccnc1C(=O)NC(c1cccc(F)c1Cl)[C@]1(O)CC[C@@H](F)CC1 (single isomer, unassigned) [Compound 224, 4-chloro-N-[(2-chloro-3-fluorophenyl)(cis-4-fluoro-1-hydroxycyclohexyl)methyl]-3-methylpyridine-2-carboxamide]
17 | 300 nM | O=C(NC(c1ncccc1Cl)[C@]1(O)CC[C@@H](F)CC1)c1nccc(C(F)(F)F)c1Cl (single isomer, unassigned) [Compound 361, 3-chloro-N-[(3-chloropyridin-2-yl)(cis-4-fluoro-1-hydroxycyclohexyl)methyl]-4-(trifluoromethyl)pyridine-2-carboxamide]
18 | 3900 nM | O=C(NC(c1cccc(F)c1Cl)[C@]1(O)CC[C@@H](F)CC1)c1nc(Cl)ccc1Cl (single isomer, unassigned) [Compound 279, 3,6-dichloro-N-[(2-chloro-3-fluorophenyl)(cis-4-fluoro-1-hydroxycyclohexyl)methyl]pyridine-2-carboxamide]
19 | 200 nM | O=C(NC(c1ccccc1Cl)[C@]1(O)CC[C@H](F)CC1)c1nccc(C(F)(F)F)c1Cl (single isomer, unassigned) [Compound 198, 3-chloro-N-[(2-chlorophenyl)(trans-4-fluoro-1-hydroxycyclohexyl)methyl]-4-(trifluoromethyl)pyridine-2-carboxamide]
20 | 900 nM | O=C(NC(c1cccc(F)c1Cl)[C@]1(O)CC[C@@H](F)CC1)c1nc(C(F)(F)F)ccc1Cl (single isomer, unassigned) [Compound 290, 3-chloro-N-[(2-chloro-3-fluorophenyl)(cis-4-fluoro-1-hydroxycyclohexyl)methyl]-6-(trifluoromethyl)pyridine-2-carboxamide]
21 | 880 nM | N#Cc1ccc(-c2cccc(C(NC(=O)c3cccc(C(F)(F)F)c3Cl)C3(O)CCCC3)c2)cc1 (centres unmarked) [Compound 5, 2-chloro-N-[(4′-cyanobiphenyl-3-yl)(1-hydroxycyclopentyl)methyl]-3-(trifluoromethyl)benzamide]
22 | 1300 nM | O=C(NC(c1cccc(Cl)c1F)C1(O)CCC(F)(F)CC1)c1nc(C(F)(F)F)ccc1Cl (single isomer, unassigned) [Compound 226, 3-chloro-N-[(3-chloro-2-fluorophenyl)(4,4-difluoro-1-hydroxycyclohexyl)methyl]-6-(trifluoromethyl)pyridine-2-carboxamide]
23 | 1000 nM | O=C(NC(c1cccc(F)c1Cl)[C@]1(O)CC[C@@H](F)CC1)c1ccccc1Cl (single isomer, unassigned) [Compound 247, 2-chloro-N-[(2-chloro-3-fluorophenyl)(cis-4-fluoro-1-hydroxycyclohexyl)methyl]benzamide]
24 | 760 nM | CCn1cc(-c2cccc(C(NC(=O)c3cc(Cl)ccc3Cl)C3(O)CCC(F)(F)CC3)c2)cn1 (single isomer, unassigned) [Compound 194, 2,5-dichloro-N-{(4,4-difluoro-1-hydroxycyclohexyl)[3-(1-ethyl-1H-pyrazol-4-yl)phenyl]methyl}benzamide]
25 | 1800 nM | O=C(NC(c1cc(F)cc(Cl)c1)[C@]1(O)CC[C@@H](F)CC1)c1nccc(C(F)(F)F)c1Cl (single isomer, unassigned) [Compound 220, 3-chloro-N-[(3-chloro-5-fluorophenyl)(cis-4-fluoro-1-hydroxycyclohexyl)methyl]-4-(trifluoromethyl)pyridine-2-carboxamide]

same assay, conditions: human GlyT1

Row | IC50 | Compound
26 | 170 nM | CS(=O)(=O)c1ncc(C(F)(F)F)cc1C(=O)NC(c1ccccc1Cl)C1(O)CCC(F)(F)CC1 (single isomer, unassigned) [Compound 404, N-[(2-chlorophenyl)(4,4-difluoro-1-hydroxycyclohexyl)methyl]-2-(methylsulfonyl)-5-(trifluoromethyl)pyridine-3-carboxamide]
